“Also recorded” adds a separate entry of the source. Like-named read-outs stand apart in the source and are kept apart here.
What was measured:
PC-3 xenograft = assay: PC-3 prostate cancer xenograft model; format: in vivo, mice; settings: 5, 10 and 15 mg/kg i.p. q.o.d., FIG. 9
Protocol: CX-3543 was tested against a number of cancer xenograft models to determine the in vivo efficacy. HCT-116 and PC-3 tumor-bearing nu/nu or MiaPaCa tumor-bearing SCID mice were administered reference and testing compounds on schedules indicated in figure legends. Tumor measurements were taken with calipers every other day or twice a week starting from the first day of dosing and body weights were measured at the same time points. Tumor volumes were calculated from the standard formula, W^2×L/2. c-MYC mRNA expression was measured with QPCR from all tumor samples following the final dose. 18S ribosomal RNA was used as a housekeeper and also quantified with QPCR.

[1] = Pharmacokinetic/toxicokinetic evaluation in rats; format: in vivo; settings: for Cmax / AUC(0-t) / half-life / AUC(0-inf): rat, plasma
Protocol: The study was conducted using three (3) test and one (1) control article groups. The high and low test article groups and the control group consisted of 28 animals each and were used to assess tolerance. The medium test article group consisted of 64 animals of which 28 animals were used to assess tolerance and 36 animals were used to determine the level of test article in the blood at various time points after the first and fifth doses in the PK/TK portion of the study. The control article was the solution (5% dextrose in water; D5W) used to dilute the test article prior to administration and was administered at the same volume as the high dose test article group. […] Test and control articles were administered by intravenous (IV) injection into a tail vein over one minute on five consecutive days.
Blood samples for test article blood level analysis were taken as follows. Approximately 0.3-0.5 mL of blood was taken from three male and three female rats under anesthesia at each sample time point of pre-dose and at the end of injection (Time 0) and at approximately 0.08, 0.25, 0.5, 1, 2, 4, 8, 12, and 24 hours from the end of the injection after the first and fifth doses. Animals used to assess tolerance were terminated one day (for the primary group) or 15 days (for the recovery group) after the last dose. At termination of the tolerance test animals, blood for hematology and clinical chemistry analysis was drawn prior to euthanasia and following euthanasia. A necropsy was performed to include collection of major organs for microscopic evaluation. The animals used for the pk/tk blood sampling only to determine the level of test article were euthanized after the final blood sample was collected without any further sampling or observations.
PK/TK: Blood samples for test article blood level analysis were taken. Utilizing 18 male and 18 female medium dose animals, approximately 0.3-0.5 mL of blood was taken from three male and three female rats under anesthesia at each sampling time point of pre-dose and at the end of injection (Time 0) and at approximately 0.08, 0.25, 0.5, 1, 2, 4, 8, 12, and 24 hours from the end of the injection after the first and fifth dose. Blood sampling was via retro-orbital bleeding or cardiac puncture bleeding for an animal's terminal sample. Plasma (lithium heparin anticoagulant) samples were prepared and analyzed. General procedures for chemical pathology, necropsy, and histopathology, and statistical methods, for example as described in Example 65, were followed.

In the case of `CN1CCCC1CCNC(=O)c1cn2c3c(c(N4CCC(c5cnccn5)C4)c(F)cc3c1=O)Oc1cc3ccccc3cc1-2` (stereo not shown) [CX-3543], the tumor growth inhibition (PC-3 xenograft) is reported as “inhibits tumor growth; also recorded: significant tumor growth inhibition”, the “Dose 5 to Dose 1 ratio for AUC(0-24)” value ([1]; female) is reported as 1.5 and the Cmax ([1]; female, iv, 7.6 mg/kg, Dose 1) is reported as 598 ng/mL. The Cmax ([1]; female, iv, 7.6 mg/kg, Dose 5) was 1050 ng/mL, the AUC(0-t) ([1]; female, iv, 7.6 mg/kg, female, Dose 1, read-out: AUC(0-24)) was 784 ng·h/mL and the AUC(0-t) ([1]; female, iv, 7.6 mg/kg, female, Dose 5, read-out: AUC(0-24)) was 1200 ng·h/mL. The half-life ([1]; female, iv, 7.6 mg/kg, female, Dose 5, read-out: terminal half-life (converted)) was 4.8 h, the half-life ([1]; female, iv, 7.6 mg/kg, female, IV, Dose 1 (medium dose group, 7.6 mg/kg), read-out: terminal half-life (converted)) was 6.6 h and the half-life ([1]; female, iv, […], female, Dose 1, […] IV, read-out: T1/2 (converted)) was 6.6 h. The half-life ([1]; female, iv, […], female, Dose 5, […] IV once daily, read-out: T1/2 (converted)) was 4.8 h, the “Dose 5 to Dose 1 ratio for AUC(0-24)” value ([1]; male) was 1.3 and the “Accumulation Ratio” value ([1]; male, Dose 5 to Dose 1 AUC(0-24), 7.1 mg/kg IV) was 1.3. For the same compound, the Cmax ([1]; male, iv, 7.1 mg/kg, Dose 1, 7.1 mg/kg IV) was 514 ng/mL, the Cmax ([1]; male, iv, 7.1 mg/kg, Dose 5, 7.1 mg/kg IV once daily) was 485 ng/mL and the AUC(0-t) ([1]; male, iv, 7.1 mg/kg, male, Dose 1, 7.1 mg/kg IV, read-out: AUC(0-24)) was 779 ng·h/mL. It also gave a half-life ([1]; male, iv, 7.1 mg/kg, male, Dose 1, 7.1 mg/kg IV, read-out: T1/2 (converted)) of 6.8 h, an AUC(0-t) ([1]; male, iv, 7.1 mg/kg, male, Dose 5, 7.1 mg/kg IV once daily, read-out: AUC(0-24)) of 1010 ng·h/mL and a half-life ([1]; male, iv, 7.1 mg/kg, male, Dose 5, 7.1 mg/kg IV once daily, read-out: T1/2 (converted)) of 8.8 h. For the same compound, the Cmax ([1]; male, iv, 7.6 mg/kg, Dose 1) was 514 ng/mL, the Cmax ([1]; male, iv, 7.6 mg/kg, Dose 5) was 485 ng/mL and the AUC(0-t) ([1]; male, iv, 7.6 mg/kg, male, Dose 1, read-out: AUC(0-24)) was 779 ng·h/mL. It also gave an AUC(0-t) ([1]; male, iv, 7.6 mg/kg, male, Dose 5, read-out: AUC(0-24)) of 1010 ng·h/mL, a half-life ([1]; male, iv, 7.6 mg/kg, male, Dose 5, read-out: terminal half-life (converted)) of 8.8 h and a half-life ([1]; male, iv, 7.6 mg/kg, male, IV, Dose 1 (medium dose group, 7.6 mg/kg), read-out: terminal half-life (converted)) of 6.8 h. For the same compound, the AUC(0-inf) ([1]; female, Dose 1, 7.2 mg/kg IV) was 861 ng·h/mL, the AUC(0-inf) ([1]; iv, 7.6 mg/kg, female, Dose 1) was 861 ng·h/mL and the AUC(0-inf) ([1]; iv, 7.6 mg/kg, male, Dose 1) was 833 ng·h/mL. The AUC(0-inf) ([1]; male, Dose 1, 7.1 mg/kg IV) was 833 ng·h/mL.

— patent US7507727B2, “Substituted quinobenzoxazine analogs and methods of using thereof” (Cylene Pharmaceuticals, Inc., priority 2003, dated 2009)
